Data set [1] relates to Carbapenem-resistant Pseudomonas aeruginosa. The data set is classed as cell-based. The settings on record: 48 h.
Protocol: (§1) Antimicrobial activity of the peptides was evaluated against Escherichia coli JCM 5491, Pseudomonas aeruginosa JCM 6119, Staphylococcus aureus JCM2874, Salmonella Typhimurium JCM1652, Acinetobacter baumannii JCM6841, Bacteroides fragilis JCM11019, Fusobacterium nucleatum JCM11025, Penicillium glabrum JCM22534, Fusarium solani JCM11383, Alternaria alternata JCM5800 (RIKEN, A research institution for basic and applied science in Japan), Micrococcus luteus NBRC13867, Bacillus subtilis NBRC3134, Propionibacterium acnes NBRC107605, Trichophyton mentagrophytes NBRC6124, Trichophyton rubrum NBRC9185, Candida krusei NBRC1395 (National Institute of Technology and Evaluation, Tokyo, Japan), Salmonella Enteritidis IID604 (The Institute of Medical Science, The University of Tokyo, Tokyo, Japan). […] Serial two-fold dilutions of peptide were added to 0.1 ml of medium containing each type of bacteria and fungi at concentrations of 0.4×10^4 – 5×10^4 CFU/ml. The plates were incubated at 37°C with vigorous shaking for 24 or 48 hours. The MICs were determined as the lowest concentrations of peptide that inhibited visible bacterial growth.
Data set [2] relates to Micrococcus luteus. Briefly: microbe, parasite or virus in culture. Type of data set: cell-based. The settings on record: 48 h.
Protocol: (§2) Antimicrobial activity of the peptides was evaluated against Escherichia coli JCM 5491, Pseudomonas aeruginosa JCM 6119, Staphylococcus aureus JCM2874, Salmonella Typhimurium JCM1652, Acinetobacter baumannii JCM6841, Bacteroides fragilis JCM11019, Fusobacterium nucleatum JCM11025, Penicillium glabrum JCM22534, Fusarium solani JCM11383, Alternaria alternata JCM5800 (RIKEN, A research institution for basic and applied science in Japan), Micrococcus luteus NBRC13867, Bacillus subtilis NBRC3134, Propionibacterium acnes NBRC107605, Trichophyton mentagrophytes NBRC6124, Trichophyton rubrum NBRC9185, Candida krusei NBRC1395 (National Institute of Technology and Evaluation, Tokyo, Japan), Salmonella Enteritidis IID604 (The Institute of Medical Science, The University of Tokyo, Tokyo, Japan). Additionally, the clinical isolates (Drug-sensitive/resistant Pseudomonas aeruginosa and Staphylococcus aureus, Osaka University Hospital) and multidrug-resistant Acinetobacter baumannii (ATCC BAA-1605) were used. […] Serial two-fold dilutions of peptide were added to 0.1 ml of medium containing each type of bacteria and fungi at concentrations of 0.4×10^4 – 5×10^4 CFU/ml. The plates were incubated at 37°C with vigorous shaking for 24 or 48 hours. The MICs were determined as the lowest concentrations of peptide that inhibited visible bacterial growth.
Data set [3] has as its system E. coli (ATCC25922). The data set is described as follows: microbe, parasite or virus in culture. The settings on record: ATCC25922, 48 h. Type of data set: cell-based, Escherichia coli.
Protocol: as §2
Data set [4] deals with Trichophyton rubrum. The data set is described as follows: microbe, parasite or virus in culture. The data set is classed as cell-based. The settings on record: 48 h.
Protocol: as §2
The subject of data set [5] is Trichophyton mentagrophytes. The data set is described as follows: microbe, parasite or virus in culture. Type of data set: cell-based. The settings on record: 48 h.
Protocol: as §2
Data set [6] deals with Bacteroides fragilis. The data set is described as follows: microbe, parasite or virus in culture. Type of data set: cell-based. The settings on record: 48 h.
Protocol: as §2
The test system of data set [7] is Fusarium solani. Briefly: microbe, parasite or virus in culture. Type of data set: cell-based. The settings on record: 48 h.
Protocol: as §2
The conditions of data set [8]: peptide 500 μg/ml, 37°C, 3 or 10 minutes, acetonitrile/0.1% trifluoroacetate precipitation, HPLC, N = 2 (Fig. 1E). The procedure:
In vitro stability studies were performed by incubating the peptide with rat or human serum. Human sera (Pool of donors, 5 men and 5 women) were commercially purchased from KAC (Kyoto, Japan), which has been permitted only for experiment. We don't use the human biological specimens without the documented informed consent. Rat sera were collected from rats. The peptide (500 μg/ml) was added to serum (300 μL) and incubated at 37°C. A part of samples (90 μL) were taken, and the proteins were precipitated with acetonitrile containing 0.1% trifluoroacetate (200 μL). The precipitate was separated by centrifugation. The supernatants were analyzed by high-performance liquid chromatography (HPLC).

The test system of data set [9] is Salmonella Enteritidis. Briefly: microbe, parasite or virus in culture. The data set is classed as cell-based. The settings on record: 48 h.
Protocol: as §1
Data set [10] concerns S. aureus (ATCC29213). The data set is described as follows: microbe, parasite or virus in culture. Type of data set: cell-based, Staphylococcus aureus. The settings on record: ATCC29213, 48 h.
Protocol: as §2
Data set [11] has as its system Candida krusei. Briefly: microbe, parasite or virus in culture. The data set is classed as cell-based. The settings on record: 48 h.
Protocol: as §2
Data set [12] has as its system Salmonella Typhimurium. The data set is described as follows: microbe, parasite or virus in culture. Type of data set: cell-based. The settings on record: murium, 48 h.
Protocol: as §1
Data set [13] concerns Alternaria alternata. Briefly: microbe, parasite or virus in culture. The data set is classed as cell-based. The settings on record: 48 h.
Protocol: as §2
For data set [14], the system named is Acinetobacter baumannii. Type of data set: cell-based. The settings on record: 48 h.
Protocol: as §1
In data set [15] the test system is Bacillus subtilis. The data set is described as follows: microbe, parasite or virus in culture. Type of data set: cell-based. The settings on record: 48 h.
Protocol: as §1
Data set [16] concerns Multidrug-resistant Acinetobacter baumannii. Type of data set: cell-based. The settings on record: 48 h.
Protocol: as §1

The values that follow come from publication PMC3968008 (PLoS ONE, 2014).

SMILES strings stand for the structures. Converted amounts (≈) assume the structure as drawn. Square brackets hold non-standard residues; d marks the D form. Peptide text beside a SMILES is read from it.

Consider `CC[C@H](C)[C@H](NC(=O)[C@H](CC(C)C)NC(=O)[C@H](CCCCN)NC(=O)[C@H](CC(C)C)NC(=O)[C@@H](N)CCSC)C(=O)N[C@@H](Cc1ccccc1)C(=O)N[C@@H](CC(C)C)C(=O)N[C@@H](Cc1c[nH]cn1)C(=O)N[C@@H](CCCNC(=N)N)C(=O)N[C@@H](CC(C)C)C(=O)N[C@@H](CCCCN)C(=O)N[C@@H](CCCNC(=N)N)C(=O)N[C@@H](CCSC)C(=O)N[C@@H](CCCNC(=N)N)C(=O)N[C@@H](CCCCN)C(=O)N[C@@H](CCCNC(=N)N)C(=O)N[C@@H](CC(C)C)C(=O)N[C@H](CCCCN)C(=O)N[C@@H](CCCNC(=N)N)C(=O)N[C@@H](CCCCN)C(=O)O` [SR-0379] (H-MLKLIFLHRLKRMRKRL[dK]RK-OH), for which the “MIC Pseudomonas aeruginosa, Carbapenem-resistant” value in data set [1] fell in the range of 16 to 64 µg/mL. Also, the “MIC Micrococcus luteus” value in [2] stood at 2 µg/mL (≈ 0.75 µM). Besides, in [3], the “MIC E. coli (ATCC25922)” value was determined as 8 µg/mL (≈ 3 µM). Further, the “MIC Trichophyton rubrum” value in data set [4] is 64 µg/mL (≈ 24 µM). Further, the “MIC Trichophyton mentagrophytes” value in data set [5] is 32 µg/mL (≈ 12 µM). Moreover, in data set [6], the “MIC Bacteroides fragilis” value worked out at 32 µg/mL (≈ 12 µM). For the same compound, the “MIC Fusarium solani” value in data set [7] came out at 8 µg/mL (≈ 3 µM). Moreover, in data set [8] (human serum (pool of 5 men and 5 women) 300 μL), the “Stability in human serum” value is on record as “significantly improved”. For the same compound, in data set [8] (rat serum 300 μL), the “Stability in rat serum” value is listed as “significantly improved”. Moreover, the “MIC Salmonella Enteritidis” value in [9] is 8 µg/mL (≈ 3 µM). The “MIC S. aureus (ATCC29213)” value in data set [10] was determined as 16 µg/mL (≈ 6 µM). Moreover, the “MIC Candida krusei” value in data set [11] was 32 µg/mL (≈ 12 µM). In data set [12], the “MIC Salmonella Typhimurium” value stood at 8 µg/mL (≈ 3 µM). Moreover, the “MIC Alternaria alternata” value in data set [13] came out at 32 µg/mL (≈ 12 µM). Besides, the “MIC Acinetobacter baumannii” value in [14] turned out to be 8 µg/mL (≈ 3 µM). For the same compound, the “MIC Bacillus subtilis” value in data set [15] was determined as 2 µg/mL (≈ 0.75 µM). In data set [16], the “MIC Acinetobacter baumannii, Multidrug-resistant” value amounted to 16 µg/mL (≈ 6 µM).
